Our source for the EC50 and melting point values is US8394789B2, “(Dihydro)pyrrolo[2,1-α]isoquinolines” (MSD Oss B.V., priority 2008, dated 2013).

What is called EC50 is the concentration giving half of the maximal effect. Low values mean a more potent agent, high ones a less potent agent. A word on the melting point: it is the temperature, or range, at which the solid turns liquid.

For one data set, the target named is T1, human FSH receptor (Homo sapiens, UniProt P23945).
T1 construct: expressed in transfected cells
T1 sequence (P23945 18-695): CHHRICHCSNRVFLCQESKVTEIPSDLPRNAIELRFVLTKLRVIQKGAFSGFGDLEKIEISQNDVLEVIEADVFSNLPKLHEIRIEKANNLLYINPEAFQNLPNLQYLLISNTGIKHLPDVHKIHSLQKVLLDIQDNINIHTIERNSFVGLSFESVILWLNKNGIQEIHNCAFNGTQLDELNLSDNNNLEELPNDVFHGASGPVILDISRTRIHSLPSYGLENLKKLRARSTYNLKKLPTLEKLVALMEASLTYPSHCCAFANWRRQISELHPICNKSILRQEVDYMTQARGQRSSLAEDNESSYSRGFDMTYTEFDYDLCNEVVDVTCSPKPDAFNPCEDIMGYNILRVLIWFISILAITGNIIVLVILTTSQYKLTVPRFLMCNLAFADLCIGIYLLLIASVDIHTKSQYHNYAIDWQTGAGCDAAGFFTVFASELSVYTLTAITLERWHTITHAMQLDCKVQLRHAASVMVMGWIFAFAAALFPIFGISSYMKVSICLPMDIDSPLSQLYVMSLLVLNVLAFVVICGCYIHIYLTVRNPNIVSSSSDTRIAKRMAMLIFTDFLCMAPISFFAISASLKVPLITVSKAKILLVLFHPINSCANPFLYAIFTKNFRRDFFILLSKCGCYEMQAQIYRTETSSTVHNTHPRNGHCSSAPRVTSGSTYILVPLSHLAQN
Kind of data set: hFSHRago (CHO luc): agonistic activity at the human FSH receptor expressed in CHO cells, CRE-luciferase reporter. The format is cell-based. The note with it: CHO cells stably transfected with human FSH receptor and CRE/luciferase reporter; 4 hours of incubation. (A reporter such as luciferase makes a cellular process visible.)

From the text for human FSH receptor: The term EC50 means the concentration of the test compound that elicits half-maximal (50%) stimulation compared to the compound's maximally attainable effect. The values can be determined e.g. in a cell line transfected with a FSH receptor gene and cotransfected with a cAMP responsive element/promoter directing the expression of a reporter gene. Values can be determined using the software program such as MathIQ (version 2.0, ID Business Solutions Limited).
Agonistic activity of the compounds at the human FSH receptor was determined in Chinese Hamster Ovary (CHO) cells stably transfected with the human FSH receptor and cotransfected with a cAMP responsive element (CRE)/promoter directing the expression of a firefly luciferase reporter gene. […] Cells (7,500 cells/well of a 384 well plate) were incubated in Dulbecco' minimal essential F12 modified medium (Invitrogen), supplemented with 1 μg/ml bovine insulin, 5 μg/ml human apo-transferrin, 80 U/ml penicillin G and 80 μg/ml streptomycin with the test compounds (concentration between 0.0316 nM and 10.0 μM) in duplicate in a humidified atmosphere (95%) at 5-7% CO2 and 37° C. The final concentration of DMSO was 1%. After 4 hours of incubation, plates were allowed to adjust to room temperature for 1 hour. Then, Luclite (PerkinElmer) solution was added to the wells and cells were allowed to lyse for at least 1 hour at room temperature. Subsequently, luciferase activity was measured in a luminescence counter. The signal is expressed as counts per second (cps). The EC50 (concentration of the test compound that elicits half-maximal (50%) luciferase stimulation compared to the compound's maximally attainable effect) and efficacy values (maximal effect of the test compound as percentage of the maximal effect of recombinant human FSH) of the compounds were determined using the software program MathIQ (version 2.0, ID Business Solutions Limited).

Take `COc1cc2c(cc1OC(C)C)-c1c(-c3cccs3)cc(C(=O)N3CCCN(C(C)=O)CCC3)n1CC2` [Example 16, 1-[5-(9-Isopropoxy-8-methoxy-1-thiophen-2-yl-5,6-dihydro-pyrrolo[2,1-α]isoquinoline-3-carbonyl)-[1,5]diazocan-1-yl]-ethanone]: the melting point is 153 to 155 °C. Besides, the EC50 on human FSH receptor is 5 nM.

As to `COc1cc2c(cc1OC(C)C)-c1c(-c3cccs3)cc(C(=O)N3CC4CC(C3)c3cccc(=O)n3C4)n1CC2` (stereo not drawn) [Example 18, 3-(9-Isopropoxy-8-methoxy-1-thiophen-2-yl-5,6-dihydro-pyrrolo[2,1-α]isoquinoline-3-carbonyl)-1,2,3,4,5,6-hexahydro-1,5-methano-pyrido[1,2-α][1,5]diazocin-8-one], the melting point stood at 260 °C. Also, the EC50 on human FSH receptor is 37.3 nM.

The compound `COc1cc2c(cc1OC(C)C)-c1c(-c3cccs3)cc(C(=O)N3CC4CC(C3)C3CCCC(=O)N3C4)n1CC2` (stereo not drawn) [Example 19, 3-(9-Isopropoxy-8-methoxy-1-thiophen-2-yl-5,6-dihydro-pyrrolo[2,1-α]isoquinoline-3-carbonyl)-decahydro-1,5-methano-pyrido[1,2-α][1,5]diazocin-8-one] registered a melting point of 207 to 208 °C. For the same compound, the response at human FSH receptor was half-maximal at 29.4 nM (EC50).

`COc1cc2c(cc1OC(C)C)-c1c(-c3cccs3)cc(C(=O)N3C[C@H]4C[C@@H](NC(C)=O)C[C@H]4C3)n1CC2` [Example 25, N-[-2-(9-isopropoxy-8-methoxy-1-thiophen-2-yl-5,6-dihydro-pyrrolo[2,1-α]isoquinoline-3-carbonyl)-octahydro-cyclopenta[c]pyrrol-5-endo-yl]-acetamide] registered a melting point of 106 to 112 °C. At human FSH receptor, this compound registered an EC50 of 45.4 nM.

Consider `COc1cc2c(cc1OC(C)C)-c1c(-c3cccs3)cc(C(=O)N(C)C(C)(C)CO)n1CC2` [Example 30, 9-Isopropoxy-8-methoxy-1-thiophen-2-yl-5,6-dihydro-pyrrolo[2,1-α]isoquinoline-3-carboxylic acid (2-hydroxy-1,1-dimethyl-ethyl)-methyl-amide], for which the melting point lay in the range of 150 to 152 °C. Moreover, on human FSH receptor, the 50% effective concentration (EC50) amounted to 1 nM.

The compound `COc1cccc(Oc2cc3c(cc2OC)CCn2c(C(=O)N(C)C(C)(C)C)cc(-c4cccs4)c2-3)c1` [Example 74, N-tert-butyl-8-methoxy-9-(3-methoxyphenoxy)-N-methyl-1-(thiophen-2-yl)-5,6-dihydropyrrolo[2,1-α]isoquinoline-3-carboxamide] came in with a melting point of 176 to 177 °C. The EC50 on human FSH receptor was 203 nM.

In the case of `COc1cc2c(cc1Oc1cccc(F)c1)-c1c(-c3cccs3)cc(C(=O)N(C)C(C)(C)C)n1CC2` [Example 75, 9-(3-Fluoro-phenoxy)-8-methoxy-1-thiophen-2-yl-5,6-dihydro-pyrrolo[2,1-α]isoquinoline-3-carboxylic acid tert-butyl-methyl-amide], the melting point was 158 to 159 °C. Besides, the concentration giving a half-maximal response (EC50) at human FSH receptor was 16.3 nM.

Regarding `COc1cc2c(cc1Oc1ncccn1)-c1c(-c3cccs3)cc(C(=O)N(C)C(C)(C)C)n1CC2` [Example 76, N-tert-butyl-8-methoxy-N-methyl-9-(pyrimidin-2-yloxy)-1-(thiophen-2-yl)-5,6-dihydro-pyrrolo[2,1-α]isoquinoline-3-carboxamide], the melting point lay within 164 to 165 °C. The compound further showed a concentration giving a half-maximal response (EC50) on human FSH receptor of 18.9 nM.

Consider `COc1cc2c(cc1CCC(C)(C)O)-c1c(-c3cccs3)cc(C(=O)N(C)C(C)(C)C)n1CC2` [Example 92, 9-(3-Hydroxy-3-methyl-butyl)-8-methoxy-1-thiophen-2-yl-5,6-dihydro-pyrrolo[2,1-α]isoquinoline-3-carboxylic acid tert-butyl-methyl-amide], for which the melting point fell in the range of 153 to 154 °C. This compound yielded an EC50 on human FSH receptor of 6 nM.

On to `COc1cc2c(cc1NC(=O)c1cccnc1)-c1c(-c3cccs3)cc(C(=O)N(C)C(C)(C)C)n1CC2` [Example 102, 8-Methoxy-9-[(pyridine-3-carbonyl)-amino]-1-thiophen-2-yl-5,6-dihydro-pyrrolo[2,1-α]isoquinoline-3-carboxylic acid tert-butyl-methyl-amide], for which the melting point is 223 to 224 °C. This compound also gave a 50% effective concentration (EC50) at human FSH receptor of 13 nM.

As to `COc1cc2c(cc1OC)-c1c(-c3cccs3)cc(C(=O)N3CCCN(C(=O)C4CCC4)CC3)n1CC2` [Example 111a, (4-Cyclobutanecarbonyl-[1,4]diazepan-1-yl)-(8,9-dimethoxy-1-thiophen-2-yl-5,6-dihydro-pyrrolo[2,1-α]isoquinolin-3-yl)-methanone], on human FSH receptor, it took 2.9 nM to reach a half-maximal effect (EC50).

`COc1cc2ccn3c(C(=O)N4CCCN(C(=O)C5CCC5)CC4)cc(-c4cccs4)c3c2cc1OC` [Example 111b, (4-Cyclobutanecarbonyl-[1,4]diazepan-1-yl)-(8,9-dimethoxy-1-thiophen-2-yl-pyrrolo[2,1-α]isoquinolin-3-yl)-methanone]: on human FSH receptor, the response was half-maximal at 4.9 nM (EC50).

On human FSH receptor, `CCOc1cc2c(cc1OC)CCn1c(C(=O)N(CC)C(C)C)c(C(C)=O)c(-c3cccs3)c1-2` [Example 112, 2-Acetyl-9-ethoxy-8-methoxy-1-thiophen-2-yl-5,6-dihydro-pyrrolo[2,1-α]isoquinoline-3-carboxylic acid ethyl-isopropyl-amide] returned an EC50 of 200 nM.

On to `COc1cc2c(cc1OC(F)F)-c1c(-c3nccs3)cc(C(=O)N(C)C(C)(C)C)n1CC2` [Example 113, 9-Difluoromethoxy-8-methoxy-1-thiazol-2-yl-5,6-dihydro-pyrrolo[2,1-α]isoquinoline-3-carboxylic acid tert-butyl-methyl-amide], for which it took 39.6 nM to reach a half-maximal effect at human FSH receptor (EC50).

The compound `CCN(C(=O)c1cc(-c2cccs2)c2n1CCc1c-2cc(OC)c(OC)c1C)C(C)C` [Example 114, 8,9-Dimethoxy-7-methyl-1-thiophen-2-yl-5,6-dihydro-pyrrolo[2,1-α]isoquinoline-3-carboxylic acid ethyl-isopropyl-amide] gave an EC50 at human FSH receptor of 321 nM. Compared with the last compound, the EC50 is about 8.1-fold higher.

As to `CCN(C(=O)c1cc(-c2cccs2)c2n1CCc1c-2cc(OC)c(OC)c1F)C(C)C` [Example 115, 7-Fluoro-8,9-dimethoxy-1-thiophen-2-yl-5,6-dihydro-pyrrolo[2,1-α]isoquinoline-3-carboxylic acid ethyl-isopropyl-amide], the EC50 at human FSH receptor was 937 nM.

As for `CCN(C(=O)c1cc(-c2ccsc2)c2n1CCc1cc(OC)c(OC)c(F)c1-2)C(C)C` [Example 116, 10-Fluoro-8,9-dimethoxy-1-thiophen-3-yl-5,6-dihydro-pyrrolo[2,1-α]isoquinoline-3-carboxylic acid ethyl-isopropyl-amide], the concentration for a half-maximal effect (EC50) at human FSH receptor was found to be 318 nM. Compared with the last compound, the EC50 is about 2.9-fold lower.

`CCN(C(=O)c1cc(-c2ccsc2)c2n1CCc1cc(Br)c(OC)cc1-2)C(C)C` [Example 117, 8-Bromo-9-methoxy-1-thiophen-3-yl-5,6-dihydro-pyrrolo[2,1-α]isoquinoline-3-carboxylic acid ethyl-isopropyl-amide] registered a concentration giving a half-maximal response (EC50) at human FSH receptor of 1100 nM.

Compound `COc1cc2c(cc1OC)-c1c(-c3ccc(F)cc3F)cc(C(=O)N(C)C(C)(C)C)n1CC2` [Example 118, 1-(2,4-Difluoro-phenyl)-8,9-dimethoxy-5,6-dihydro-pyrrolo[2,1-α]isoquinoline-3-carboxylic acid tert-butyl-methyl-amide] came in with an EC50 on human FSH receptor of 48.3 nM.

Regarding `CCOC(=O)CN(C)C(=O)c1cc(-c2ccsc2)c2n1CCc1cc(OC)c(OC)cc1-2` [Example 119c, [(8,9-Dimethoxy-1-thiophen-3-yl-5,6-dihydro-pyrrolo[2,1-α]isoquinoline-3-carbonyl)-methyl-amino]-acetic acid ethyl ester], the EC50 at human FSH receptor is 42 nM.

`COc1cc2c(cc1OC)-c1c(-c3ccsc3)cc(C(=O)N(C)CC(=O)N(C)CC(C)C)n1CC2` [Example 119e, 8,9-dimethoxy-1-thiophen-3-yl-5,6-dihydro-pyrrolo[2,1-α]isoquinoline-3-carboxylic acid [(isobutyl-methyl-carbamoyl)-methyl]-methyl-amide] yielded an EC50 at human FSH receptor of 1080 nM. Against the preceding compound, the EC50 is about 26-fold higher.

In turn, `COc1cc2c(c(OC)c1)-c1c(-c3ccsc3)cc(C(=O)N(C)C(C)(C)C)n1CC2` [Example 120, 8,10-Dimethoxy-1-thiophen-3-yl-5,6-dihydro-pyrrolo[2,1-α]isoquinoline-3-carboxylic acid tert-butyl-methyl-amide] came in with a half-maximal effective concentration (EC50) at human FSH receptor of 699 nM.

Turning to `COc1cc2c(cc1CO)-c1c(-c3cccs3)cc(C(=O)N(C)C(C)(C)C)n1CC2` [Example 121a, 9-Hydroxymethyl-8-methoxy-1-thiophen-2-yl-5,6-dihydro-pyrrolo[2,1-α]isoquinoline-3-carboxylic acid tert-butyl-methyl-amide], a half-maximal effect on human FSH receptor (EC50) was put at 10 nM. Compared with the last compound, the EC50 is about 70-fold lower.

In turn, `COCc1cc2c(cc1OC)CCn1c(C(=O)N(C)C(C)(C)C)cc(-c3cccs3)c1-2` [Example 121b, 8-Methoxy-9-methoxymethyl-1-thiophen-2-yl-5,6-dihydro-pyrrolo[2,1-α]isoquinoline-3-carboxylic acid tert-butyl-methyl-amide] yielded a concentration giving a half-maximal response (EC50) at human FSH receptor of 1.6 nM.

The compound `COc1cc2c(cc1C(C)=O)-c1c(-c3cccs3)cc(C(=O)N3CCCC3(C)C)n1CC2` [Example 122, 1-[3-(2,2-Dimethyl-pyrrolidine-1-carbonyl)-8-methoxy-1-thiophen-2-yl-5,6-dihydro-pyrrolo[2,1-α]isoquinolin-9-yl]-ethanone] returned a 50% effective concentration (EC50) on human FSH receptor of 2 nM.
